Measurements taken from patent US20230391786A1, “cGAS INHIBITORS” (Eli Lilly and Company, priority 2022, published 2023).
Where a name gives a salt, the structure may show the parent alone.

What was measured:
recombinant human cGAS = recombinant human cGAS (Homo sapiens (Human), UniProt Q8N884); assay: In vitro inhibition assay of cGAS activity (cGAMP production, RapidFire mass spectrometry); assay type: biochemical; conditions: 10 nM recombinant human cGAS, 60 nM 75-bp dsDNA, ATP, GTP, room temperature 3 hours, read-out: IC50 (μM), In vitro inhibition assay for Compounds 95-348
Method in brief: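 Product cGAMP was quantified by RapidFire MS against a difluoro-cGAMP internal standard after a formic acid quench. The reaction contained 10 nM recombinant full-length human cGAS, 75-bp dsDNA (60 nM), ATP and GTP (50 μM) and ran for 3 h at room temperature. IC50 values came from 4-parameter nonlinear regression.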

[1] = test system: cGAS activity in THP1 cells (IFNb as marker); assay: Cellular assay to measure cGAS activity (IFNb production in PMA-differentiated THP1 cells stimulated by RDG-Adenovirus-GFP); assay type: cell-based, human; conditions: Homo sapiens, THP-1, THP1 cells, PMA differentiated, RDG-Adenovirus-GFP 1000 MOI, IFNb AlphaLISA, overnight incubation; read-out: IC50 (μM), Cellular assay for Compounds 95-348
Method in brief: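 The readout is secreted IFNb measured by AlphaLISA after overnight compound exposure. THP1 cells, differentiated with PMA for 24 h and rested overnight, were infected with RDG-Adenovirus-GFP (1000 MOI, 4 h) before compounds were added; IC50 came from a 4-parameter logistic fit of inhibition against log concentration.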

recombinant human cGAS, sequence (Q8N884 whole entry): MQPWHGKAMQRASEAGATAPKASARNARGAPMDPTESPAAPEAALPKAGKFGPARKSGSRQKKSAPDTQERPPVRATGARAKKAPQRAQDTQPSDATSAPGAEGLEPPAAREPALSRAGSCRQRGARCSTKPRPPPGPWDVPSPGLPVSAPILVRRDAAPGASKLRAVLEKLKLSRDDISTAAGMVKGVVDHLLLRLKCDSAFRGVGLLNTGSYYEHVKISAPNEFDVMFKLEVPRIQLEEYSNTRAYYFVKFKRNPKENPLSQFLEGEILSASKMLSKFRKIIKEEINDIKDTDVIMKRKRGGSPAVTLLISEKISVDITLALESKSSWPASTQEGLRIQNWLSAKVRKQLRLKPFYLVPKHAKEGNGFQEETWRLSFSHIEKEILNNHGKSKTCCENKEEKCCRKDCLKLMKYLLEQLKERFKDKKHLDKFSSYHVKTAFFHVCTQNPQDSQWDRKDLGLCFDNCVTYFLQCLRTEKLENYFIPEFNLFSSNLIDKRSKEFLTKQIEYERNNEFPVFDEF

Compound	IC50 (recombinant human cGAS)	IC50 [1]
CC(=O)NC1CCCn2c1c(-c1cn[nH]c1)c1c(OCC#N)cc(Cl)c(Cl)c12 (centres unmarked) [Example 202, N-[3,4-Dichloro-1-(cyanomethoxy)-10-(1H-pyrazol-4-yl)-6,7,8,9-tetrahydropyrido[1,2-a]indol-9-yl]acetamide]	0.0191 µM	2.68 µM
Cc1nnc(N2CCn3c(c(-c4cn[nH]c4)c4c(OCC#N)cc(Cl)c(Cl)c43)C2)s1 [Example 203, 2-((6,7-Dichloro-2-(5-methyl-1,3,4-thiadiazol-2-yl)-10-(1H-pyrazol-4-yl)-1,2,3,4-tetrahydropyrazino[1,2-a]indol-9-yl)oxy)acetonitrile]	0.00677 µM	0.374 µM
N#CCOc1cc(Cl)c(Cl)c2c1c(-c1cn[nH]c1)c1n2CCN(c2ncccn2)C1 [Example 204, 2-[[6,7-Dichloro-10-(1H-pyrazol-4-yl)-2-pyrimidin-2-yl-3,4-dihydro-1H-pyrazino[1,2-a]indol-9-yl]oxy]acetonitrile]	0.0201 µM	0.854 µM
CC(CO)CNc1cc(Cl)c(Cl)c2[nH]cc(-c3cn[nH]c3)c12 (centres unmarked) [Example 205, 3-[[6,7-Dichloro-3-(1H-pyrazol-4-yl)-1H-indol-4-yl]amino]-2-methyl-propan-1-ol]	0.0287 µM	1.32 µM
Clc1cc(OC2COC2)c2c(-c3cn[nH]c3)c[nH]c2c1Cl [Example 206, 6,7-Dichloro-4-(oxetan-3-yloxy)-3-(1H-pyrazol-4-yl)-1H-indole]	0.0421 µM	1.28 µM
O[C@H]1C[C@@H](Oc2cc(Cl)c(Cl)c3[nH]cc(-c4cn[nH]c4)c23)C1 [Example 207, Cis-3-[[6,7-Dichloro-3-(1H-pyrazol-4-yl)-1H-indol-4-yl]oxy]cyclobutanol]	0.042 µM	1.63 µM
F[C@H]1C[C@@H](Nc2cc(Cl)c(Cl)c3[nH]cc(-c4cn[nH]c4)c23)C1 [Example 208, Cis-6,7-Dichloro-N-(3-fluorocyclobutyl)-3-(1H-pyrazol-4-yl)-1H-indol-4-amine]	0.0416 µM	2.54 µM
OCCc1cc(-n2cc(-c3cn[nH]c3)c3ccc(Cl)c(Cl)c32)on1 [Example 211, 2-[5-[6,7-Dichloro-3-(1H-pyrazol-4-yl)indol-1-yl]isoxazol-3-yl]ethanol]	0.0342 µM	2.28 µM
O=C(O)Cn1cc(-n2cc(-c3cn[nH]c3)c3ccc(Cl)c(Cl)c32)nn1 [Example 212, 2-[4-[6,7-Dichloro-3-(1H-pyrazol-4-yl)indol-1-yl]triazol-1-yl]acetic acid]	0.0125 µM	> 10 µM
NC(=O)Cn1cc(-n2cc(-c3cn[nH]c3)c3ccc(Cl)c(Cl)c32)nn1 [Example 213, 2-[4-[6,7-Dichloro-3-(1H-pyrazol-4-yl)indol-1-yl]triazol-1-yl]acetamide]	0.0538 µM	4.1 µM
NCCn1cc(-n2cc(-c3cn[nH]c3)c3ccc(Cl)c(Cl)c32)nn1 [Example 214, 2-[4-[6,7-Dichloro-3-(1H-pyrazol-4-yl)indol-1-yl]triazol-1-yl]ethanamine hydrochloride]	0.0686 µM	0.885 µM
CNNc1cc(Cl)c(Cl)c2[nH]cc(-c3cn[nH]c3)c12 [Example 215, 1-[6,7-Dichloro-3-(1H-pyrazol-4-yl)-1H-indol-4-yl]-2-methyl-hydrazine hydrochloride]	0.0864 µM	2.59 µM
NCC(=O)NCc1[nH]c2c(Cl)c(Cl)ccc2c1-c1cn[nH]c1 [Example 216, 2-Amino-N-[[6,7-dichloro-3-(1H-pyrazol-4-yl)-1H-indol-2-yl]methyl]acetamide formic acid salt]	0.0598 µM	4.17 µM
CNCC(=O)NCc1[nH]c2c(Cl)c(Cl)ccc2c1-c1cn[nH]c1 [Example 217, N-[[6,7-Dichloro-3-(1H-pyrazol-4-yl)-1H-indol-2-yl]methyl]-2-(methylamino)acetamide formic acid salt]	0.0794 µM	2.12 µM
OCCn1cc(-n2cc(-c3cn[nH]c3)c3ccc(Cl)c(F)c32)nn1 [Example 218, 2-[4-[6-Chloro-7-fluoro-3-(1H-pyrazol-4-yl)indol-1-yl]triazol-1-yl]ethanol]	0.0679 µM	3.27 µM
O=C(Nc1cc(Cl)cc2[nH]cc(-c3cn[nH]c3)c12)C(F)F [Example 219, N-(6-Chloro-3-(1H-pyrazol-4-yl)-1H-indol-4-yl)-2,2-difluoroacetamide]	0.0348 µM	0.35 µM
O=C(CO)NCc1[nH]c2c(Cl)c(Cl)cc(NC(=O)CO)c2c1-c1cn[nH]c1 [Example 221, N-[[6,7-Dichloro-4-[(2-hydroxyacetyl)amino]-3-(1H-pyrazol-4-yl)-1H-indol-2-yl]methyl]-2-hydroxy-acetamide]	0.0238 µM	> 10 µM

Compound	IC50 (recombinant human cGAS)	IC50 [1]
CC(=O)Nc1cc(Cl)c(Cl)c2[nH]c(CNC(=O)CO)c(-c3cn[nH]c3)c12 [Example 222, N-[[4-Acetamido-6,7-dichloro-3-(1H-pyrazol-4-yl)-1H-indol-2-yl]methyl]-2-hydroxy-acetamide]	0.0927 µM	> 10 µM
O=C(NCc1[nH]c2c(Cl)c(Cl)ccc2c1-c1cn[nH]c1)C1(O)COC1 [Example 223, N-[[6,7-Dichloro-3-(1H-pyrazol-4-yl)-1H-indol-2-yl]methyl]-3-hydroxy-oxetane-3-carboxamide]	0.0812 µM	3.2 µM
O=C(NCc1[nH]c2c(Cl)c(Cl)ccc2c1-c1cn[nH]c1)C1COC1 [Example 224, N-[[6,7-Dichloro-3-(1H-pyrazol-4-yl)-1H-indol-2-yl]methyl]oxetane-3-carboxamide]	0.0704 µM	2.73 µM
O=C(Nc1cc(Cl)c(Cl)c2[nH]c(CCO)c(-c3cn[nH]c3)c12)C(F)F [Example 225, N-[6,7-Dichloro-2-(2-hydroxyethyl)-3-(1H-pyrazol-4-yl)-1H-indol-4-yl]-2,2-difluoro-acetamide]	0.0121 µM	0.23 µM
Clc1ccc2c(-c3cn[nH]c3)cn(-c3c[nH]nn3)c2c1 [Example 226, 6-Chloro-3-(1H-pyrazol-4-yl)-1-(1H-triazol-4-yl)indole]	0.0563 µM	2.27 µM
NC(=O)Cn1cc(-n2cc(-c3cn[nH]c3)c3ccc(Cl)cc32)nn1 [Example 227, 2-[4-[6-Chloro-3-(1H-pyrazol-4-yl)indol-1-yl]triazol-1-yl]acetamide]	0.0408 µM	1.6 µM
NCCn1cc(-n2cc(-c3cn[nH]c3)c3ccc(Cl)cc32)nn1 [Example 228, 2-[4-[6-Chloro-3-(1H-pyrazol-4-yl)indol-1-yl]triazol-1-yl] ethanamine formic acid salt]	0.0493 µM	1.46 µM
Cn1cc(-n2cc(-c3cn[nH]c3)c3ccc(Cl)cc32)nn1 [Example 230, 6-Chloro-1-(1-methyltriazol-4-yl)-3-(1H-pyrazol-4-yl)indole]	0.0693 µM	2.02 µM
CC(=S)Nc1cc(Cl)c(Cl)c2[nH]cc(-c3cn[nH]c3)c12 [Example 231, N-[6,7-Dichloro-3-(1H-pyrazol-4-yl)-1H-indol-4-yl]thioacetamide]	0.0724 µM	1.01 µM
CC(=O)N[C@H]1CCn2c1c(-c1cn[nH]c1)c1c(OCC#N)cc(Cl)c(Cl)c12 [Example 232, (S)—N-(5,6-Dichloro-8-(cyanomethoxy)-9-(1H-pyrazol-4-yl)-2,3-dihydro-1H-pyrrolo[1,2-a]indol-1-yl)acetamide]	0.00376 µM	0.668 µM
CCOc1cc(Cl)c(Cl)c2c1c(-c1cn[nH]c1)c1n2CC[C@@H]1NC(C)=O [Example 233, (S)—N-(5,6-Dichloro-8-ethoxy-9-(1H-pyrazol-4-yl)-2,3-dihydro-1H-pyrrolo[1,2-a]indol-1-yl)acetamide]	0.0806 µM	1.13 µM
CC(=O)N[C@@H]1CCn2c1c(-c1cn[nH]c1)c1c(OCC#N)cc(Cl)c(Cl)c12 [Example 234, (R)—N-(5,6-Dichloro-8-(cyanomethoxy)-9-(1H-pyrazol-4-yl)-2,3-dihydro-1H-pyrrolo[1,2-a]indol-1-yl)acetamide]	0.0249 µM	1.72 µM
CCOc1cc(Cl)c(Cl)c2c1c(-c1cn[nH]c1)c1n2CC[C@H]1NC(C)=O [Example 235, (R)—N-(5,6-Dichloro-8-ethoxy-9-(1H-pyrazol-4-yl)-2,3-dihydro-1H-pyrrolo[1,2-a]indol-1-yl)acetamide]	0.019 µM	2.05 µM
CC(=O)NCC(=O)NC1CCn2c1c(-c1cn[nH]c1)c1ccc(Cl)c(Cl)c12 (centres unmarked) [Example 236, 2-Acetamido-N-(5,6-dichloro-9-(1H-pyrazol-4-yl)-2,3-dihydro-1H-pyrrolo[1,2-a]indol-1-yl)acetamide]	0.0331 µM	> 10 µM
O=C(CO)NC1CCn2c1c(-c1cn[nH]c1)c1ccc(Cl)c(Cl)c12 (centres unmarked) [Example 237, N-(5,6-Dichloro-9-(1H-pyrazol-4-yl)-2,3-dihydro-1H-pyrrolo[1,2-a]indol-1-yl)-2-hydroxyacetamide]	0.015 µM	1.74 µM
CS(=O)(=O)NC1CCn2c1c(-c1cn[nH]c1)c1ccc(Cl)c(Cl)c12 (centres unmarked) [Example 238, N-(5,6-Dichloro-9-(1H-pyrazol-4-yl)-2,3-dihydro-1H-pyrrolo[1,2-a]indol-1-yl)methanesulfonamide]	0.046 µM	> 10 µM
CCC(=O)NC1CCn2c1c(-c1cn[nH]c1)c1ccc(Cl)c(Cl)c12 (centres unmarked) [Example 239, N-(5,6-Dichloro-9-(1H-pyrazol-4-yl)-2,3-dihydro-1H-pyrrolo[1,2-a]indol-1-yl)propionamide]	0.0613 µM	> 10 µM
